Assay results as given in paper PMC7083880 (Nature Communications, 2020).
“And” between values parts separate entries of the source, which are not always exact repeats. Identical values can stand only once.

Key:
[1] = test system: firefly luciferase (Fluc) gene with UAA nonsense codon at position 109 in HeLa cells; assay: Firefly luciferase readthrough assay, UAA PTC construct; type: cell-based, human; conditions: for Luciferase activity, UAA PTC: G418 1mg/ml
[2] = test system: wild-type TP53 in HeLa cells; assay: p53 function: luciferase under promoter with two p53-responsive elements, HeLa; type: cell-based, human
FTSJ1 = target: T1, FTSJ1 (Homo sapiens, UniProt Q9UET6); assay: UGA readthrough luciferase assay with FTSJ1 overexpression; type: cell-based
T1 construct: host or cells: HeLa
T1 sequence (Q9UET6 1-329): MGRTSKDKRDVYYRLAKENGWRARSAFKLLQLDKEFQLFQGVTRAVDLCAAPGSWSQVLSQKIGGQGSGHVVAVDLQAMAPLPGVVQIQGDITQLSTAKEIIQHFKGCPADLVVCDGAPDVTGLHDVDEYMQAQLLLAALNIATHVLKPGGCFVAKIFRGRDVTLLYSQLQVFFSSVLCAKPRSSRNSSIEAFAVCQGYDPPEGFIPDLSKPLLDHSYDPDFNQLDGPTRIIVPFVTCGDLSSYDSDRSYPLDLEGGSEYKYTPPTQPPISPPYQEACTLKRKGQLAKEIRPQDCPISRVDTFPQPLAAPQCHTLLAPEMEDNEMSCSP
Text: Firefly luciferase from HEK293FT cells transfected with the Fluc-int-UGA construct was immunoprecipitated and digested with trypsin. The MS/MS spectrum of the peptide containing the PTC position and the sequence determination are shown. The upper red and blue sequences indicate the amino acids validated, respectively, by detection of Nter and Cter peptide fragments (b and y ion series). Peptide fragments y6 and y7 clearly identify tryptophan (W) at the PTC position. The black peaks correspond to non-attributed mass-to-charge ratio (m/z) values. […] Readthrough efficiency was determined by measuring luciferase activity in HeLa cells co-transfected with the firefly luciferase construct described in Fig. 1b and with increasing amounts of an expression vector for either FTSJ1 or CTU1 (0.5, 1, or 2 µg). The empty expression vector (E.v.) was used as control. […] The experiment was performed twice and the results of both experiments (Exp1 and Exp2) are shown. c Western blot analysis of FTSJ1 and CTU1. d 2′-O-methylation analysis of tRNA^Trp, tRNA^SER, and tRNA^GLN by RiboMethSeq. […] A molecular weight marker is indicated to the left of each gel. p-values (p) were calculated using Student’s t-test. Source data are provided as a Source Data file.
Among the enzymes modifying tRNAs liable to recognize a stop codon by extended wobbling, human FTSJ1 (TRM7 in yeast) exclusively modifies tRNAs involved in UGA readthrough. In addition to other tRNA targets, FTSJ1 methylates the cytosine at position 34 of tRNA^Trp. Inhibition of this modification could increase the capacity of tRNA^Trp to misdecode and recognize the UGA stop codon. […] FTSJ1 and CTU1 overexpression were assessed by western-blot analysis (Fig. 5c).

CN[C@@H]1[C@@H](O)[C@@H](O[C@@H]2[C@@H](O)[C@H](O[C@H]3O[C@H]([C@@H](C)O)[C@@H](O)[C@H](O)[C@H]3N)[C@@H](N)C[C@H]2N)OC[C@]1(C)O [G418, reference compound]
Correction of the UAA nonsense mutation (luciferase activity), in words ([1]; Fig. 1c): only weakly corrected the UAA nonsense mutation
Luciferase activity, UAA PTC ([1]; average of 2 experiments): 495±34 and 495
Luciferase activity, UAA PTC ([1]; experiment 1): 471
Luciferase activity, UAA PTC ([1]; experiment 2): 519
Luciferase activity, p53-responsive promoter construct (DMSO = 1) ([2]; 25µM, FL922): 0.9453
Luciferase activity, p53-responsive promoter construct (DMSO = 1) ([2]; 25µM, FL932): 0.904
Luciferase activity, p53-responsive promoter construct (DMSO = 1) ([2]; 25µM, FL934): 1.071
Luciferase activity, p53-responsive promoter construct (DMSO = 1) ([2]; 25µM, average): 0.9735
Luciferase activity, p53-responsive promoter construct (DMSO = 1) ([2]; 600µM, FL922): 0.9542
Luciferase activity, p53-responsive promoter construct (DMSO = 1) ([2]; 600µM, FL932): 0.6225
Luciferase activity, p53-responsive promoter construct (DMSO = 1) ([2]; 600µM, FL934): 1.017
Luciferase activity, p53-responsive promoter construct (DMSO = 1) ([2]; 600µM, average): 0.8645
luciferase activity, average (FTSJ1; 0.5µg FTSJ1, 25µM): 2984.12
luciferase activity, exp1 (FTSJ1; 0.5µg FTSJ1, 25µM): 2303.5
luciferase activity, exp1*1,5 (FTSJ1; 0.5µg FTSJ1, 25µM): 3455.25
luciferase activity, exp2 (FTSJ1; 0.5µg FTSJ1, 25µM): 2513
luciferase activity, average (FTSJ1; 0.5µg FTSJ1, 600µM): 3518
luciferase activity, exp1 (FTSJ1; 0.5µg FTSJ1, 600µM): 2352
luciferase activity, exp1*1,5 (FTSJ1; 0.5µg FTSJ1, 600µM): 3528
luciferase activity, exp2 (FTSJ1; 0.5µg FTSJ1, 600µM): 3508
luciferase activity, average (FTSJ1; 1µg FTSJ1, 25µM): 2661.5
luciferase activity, exp1 (FTSJ1; 1µg FTSJ1, 25µM): 1562
luciferase activity, exp1*1,5 (FTSJ1; 1µg FTSJ1, 25µM): 2343
luciferase activity, exp2 (FTSJ1; 1µg FTSJ1, 25µM): 2980
luciferase activity, average (FTSJ1; 1µg FTSJ1, 600µM): 3066.25
luciferase activity, exp1 (FTSJ1; 1µg FTSJ1, 600µM): 1933
luciferase activity, exp1*1,5 (FTSJ1; 1µg FTSJ1, 600µM): 2899.5
luciferase activity, exp2 (FTSJ1; 1µg FTSJ1, 600µM): 3233
luciferase activity, average (FTSJ1; 2µg FTSJ1, 25µM): 2020.12
luciferase activity, exp1 (FTSJ1; 2µg FTSJ1, 25µM): 1256.5
luciferase activity, exp1*1,5 (FTSJ1; 2µg FTSJ1, 25µM): 1884.75
luciferase activity, exp2 (FTSJ1; 2µg FTSJ1, 25µM): 2155.5
luciferase activity, average (FTSJ1; 2µg FTSJ1, 600µM): 2062.5
luciferase activity, exp1 (FTSJ1; 2µg FTSJ1, 600µM): 1540
luciferase activity, exp1*1,5 (FTSJ1; 2µg FTSJ1, 600µM): 2310
luciferase activity, exp2 (FTSJ1; 2µg FTSJ1, 600µM): 1815
